Source: PMC4336331, “Novel Receptor-Derived Cyclopeptides to Treat Heart Failure Caused by Anti-β1-Adrenoceptor Antibodies in a Human-Analogous Rat Model” (PLoS ONE, 2015)
Peptide text beside a SMILES is read from it.

How the values were obtained:
CD4+ T-cells = assay: Recall-assay with splenic CD4+ T-cells; format: cell-based, Lewis/CrlBR rats; settings: 1.0 μg/ml β1EC2-CP; T-cells from spleens of treated and untreated rats; [3H]-thymidine (Fig. 5B-D)
Experimental: (a) Recall-assays with T-cells from spleens of immunised untreated vs. β1EC2-CP-treated animals were conducted as described in [60]. In brief, to purify CD4^+ T-cells from the splenic cell preparations, B-cells and CD8^+ T-cells were depleted by commercially available magnetic beads (MACS, Miltenyi Biotec, Bergisch-Gladbach, Germany) yielding a purity >85%. 1x10^5 of the purified CD4^+ T-cells were then co-incubated in 96-well plates with 1x10^6 irradiated thymic antigen presenting cells (prepared from a younger rat). Reagents added in the different assays were 1.0 μg/ml β1EC2-CP, 1.0 μg/ml tuberculin purified protein derivative (PPD, internal control), 1.0 μg/ml glutathion-S-transferase (GST), as well as 1.0 and 0.1 μg/ml GST/β1EC2-fusion proteins (FP), respectively. Measured T-cell reactivities were normalised to medium. After 48 h of incubation the cells were pulsed with 1.25 μCi/well [^3H]-thymidine and further incubated for 16 h before the cells were harvested; the DNA-incorporated radioactivity was measured using a beta-plate counter.
Fig 5 Immunology of cyclic β1EC2-peptides: fate of β1EC2-specific T- and B-cells. (A) Titer-course of anti-β1EC2-abs in β1EC2-CP-treated rats during the first 6 months of the prevention-study before and 24h after cyclopeptide-injection. […] For better readability error-bars are not shown in the graph. […]

[1] = test system: β1EC2-specific memory B-cells; assay: Flow cytometric detection of β1EC2-specific memory B-cells; format: in vivo, Lewis/CrlBR rats; settings: Fig. 5K and L
Experimental: (c) For flow cytometric detection of β 1 EC2-specific memory B-cells, splenocytes (1.5x10^8 cells per staining, 2x10^7 cells/ ml in PBS/0.1% BSA/0.02% NaN3) were first labelled with anti-rat IgG(Fc) PE (Jackson Immunoresearch, West Grove, USA) followed by three washings and a blocking step using normal rat serum plus GST (1:500 and 2 μg/ ml, respectively). After another washing step, OX-33 FITC (BD, Heidelberg, Germany, 0.1 μg/ml) and DyLight649-labelled GST/β1EC2-FP (0.2 μg/ml) were added. All incubations were carried out for 15 min on ice and in the dark. Finally, the cells were washed three times and analysed on a FACS-Calibur (BD, Heidelberg, Germany) and FlowJo Software (Tree Star, Ashland, USA) was used to analyse the data.
(§1) Fig 5 Immunology of cyclic β1EC2-peptides: fate of β1EC2-specific T- and B-cells. (A) Titer-course of anti-β1EC2-abs in β1EC2-CP-treated rats during the first 6 months of the prevention-study before and 24h after cyclopeptide-injection. Time-points of antigen-boosts are indicated by (red) lines, time-points of CP-injections by (green) arrows. For better readability error-bars are not shown in the graph. (B) Pre-experiments (antigenic recall-assays) performed with CD4^+ T-cells prepared from spleens of GST/β1EC2 fusion-protein (FP)-immunised untreated (n = 3, black) vs. 0.9%NaCl-injected control rats (n = 3, white). […]

[2] = test system: functional β1EC2-specific memory B-cells; assay: Adoptive B-cell transfer and suboptimal immunisation; format: in vivo, Lewis rats; settings: purified B-cells from immunised treated donors into antigen-naïve recipients, then 12.5μg β1EC2/GST-FP in adjuvans (Fig. 5M)
Experimental: (d) To detect functional β 1 EC2-specific memory B-cells in vivo, B-cells were first purified from total splenocytes by negative depletion using mAb V65, R73, 10/78 and WT.5 plus magnetic beads (MACS, Miltenyi Biotec, Bergisch-Gladbach, Germany) yielding average purities of 87%. 2.6x10^7 purified B cells were injected in 250 μl PBS i.v. into antigen-naïve syngeneic male Lewis rats. To selectively trigger the transferred memory B-cells, recipient rats were immunised after five days with only 12.5 μg GST/β1EC2-FP in adjuvans per animal. Serum was collected for antibody detection just before as well as three and seven days after immunisation.
as §1

## CC(C)[C@@H]1NC(=O)[C@H](Cc2ccccc2)NC(=O)[C@H](CC(=O)O)NC(=O)[C@H](CS)NC(=O)[C@H](CS)NC(=O)[C@H](CCCCN)NC(=O)[C@@H]2CCCN2C(=O)[C@H](CC(=O)O)NC(=O)[C@H](CC(N)=O)NC(=O)[C@H](Cc2ccc(O)cc2)NC(=O)[C@H](CS)NC(=O)[C@H](CCCNC(=N)N)NC(=O)[C@H](CCCNC(=N)N)NC(=O)[C@H](C)NC(=O)[C@H](CCC(=O)O)NC(=O)[C@H](CC(=O)O)NC(=O)[C@H](CO)NC(=O)[C@H](CCC(=O)O)NC(=O)[C@H](C)NC(=O)[C@H](CCCNC(=N)N)NC(=O)[C@H](C)NC(=O)[C@H](CCC(N)=O)NC(=O)CNC(=O)[C@H](CCCNC(=N)N)NC(=O)[C@H](CC(N)=O)NC(=O)[C@H]([C@@H](C)O)NC1=O [β1EC2-CP] (cyclo(AESDEARRCYNDPKCCDFVTNRGQAR))
CD4+ T-cells
  in vitro recall response of purified CD4+ T-cells, in words: clearly responded to the FP but not to β1EC2-CP
[1]
  β1EC2-specific memory B-cells by flow cytometry, in words: complete depletion
[2]
  anti-β1EC2-abs in serum of recipient rats after B-cell transfer, in words: did not induce detectable amounts
